# In patent publication US20090012148A1, “REDUCING CELLULAR CHOLESTEROL LEVELS AND/OR TREATING OR PREVENTING PHOSPHOLIPIDOSIS” (priority 2005, published 2009):
# Columns and labels:
# CT60 cells = experiment: Gas chromatography cholesterol assay; type: cell-based, Chinese hamster
# Description: The cholesterol lowering effect of the 14 hit compounds identified by filipin labeling was measured by an alternative chemical method that involved GC separation of solvent-extracted cellular lipids (43). CT60 cells were treated with compounds at 10 μM under the same conditions as in the screening assays. Since the GC assay estimates FC content per cell, the values are compared to the average filipin intensity assay (Table 1).
# CT60 or CT43 cells were plated on day 1 in 6-well plates. Hit compounds were added to the cells at 10 μM concentration. Cells were incubated for 24 h. Cellular lipids were extracted with hexane: iso-propyl alcohol (3:2 v/v). The lipid extracts were dried and re-suspended in hexane followed by separation on gas chromatograph using β-sitosterol as an internal standard.
# Procedure: CT60 cells were plated in 6-well plates in Ham's F-12/1.176 g/L sodium bicarbonate/2 g/L glucose/10% FBS. Following 24 h incubation, cells were treated with 10 μM of each compounds, medium being replaced with Ham's F-12/1.176 g/L sodium bicarbonate/2 g/L glucose/5.5% FBS/20 mM HEPES. The change of the medium in the wells was performed to have experimental conditions similar to those used for the screening once chemical compounds were added to the cells. After 18 h treatment with compounds, cells were washed twice with Hank's balanced salt solutions (HBSS). Cellular lipids were extracted with hexane/isopropyl alcohol (3:2 v/v) (43) dried and resuspended in hexane followed by separation on a gas chromatograph (GC) using following conditions. A Hewlett Packard GC model HP 5890 series II (Palo Alto, Calif.) equipped with a flame ionization detector, split-splitless injector, and 15 m×0.53 mm HP-5 capillary column coated with […] film thickness of 5% phenyl methyl siloxane was used to separate free cholesterol. The injection temperature was maintained at 255° C. and oven temperature was held isothermally at 260° C. using helium as a mobile phase at 30 mL/min flow rate. The free cholesterol (FC) was quantified using beta-sitosterol as internal standard to correct for lipid losses during extraction.
# CT43 cells = experiment: Toxicity assay by cell count (Hoechst 33258); type: cell-based, Chinese hamster; conditions: 24 h
# Description: To measure toxicity, we treated CT60 and CT43 cells with compounds at 5, 10 and 20 μM for 24 h. The cell number per well was compared to control cells treated with DMSO (FIG. 7). […] Compound 1-a-14 did cause a 50% reduction in cell number at 10 μM for CT60 and an 80% reduction for CT43 cells. Compounds 1-a-4, 5, 6, 8 and 13 were partially toxic as indicated by 20-30% reduction in cell number after 24 h at 10 μM. Procedure Using Cell Count Assay: Compounds were added to CT60 and CT43 cells plated in 384 well plates at 0 (DMSO solvent control), 5, 10 and 20 μM concentrations in quadruplicate using methods similar to the dose dependence assay, except that the cells were stained with Hoechst 33258 nuclear stain. The final DMSO concentration in each well was 0.2%. For the control cells an equivalent amount of DMSO was added to the cells. The cells were incubated for 24, 48 and 72 h. After each time period, cells were washed and then fixed with 1.5% PFA. After washing the cells three times with PBS, the nuclei of the cells were stained using 5 μg/ml Hoechst 33258 (25 mg/ml stock solution in DMSO) in PBS for 45 m at room temperature. Finally, cells were washed three times with PBS, and images were obtained using a Nikon 4× Plan Apo 0.2NA objective. For Hoechst imaging we used the same filter set as for filipin. We collected one 520×696 pixel image per well at 12 intensity bits per pixel. Each pixel is 3.125 by 3.125 μm in […] the object. Cells were counted by defining the standard area of single nuclei (˜200 μm^2) interactively for each plate using the Integrated Morphometry Analysis function of MetaMorph. The number of standard areas per object above a threshold was determined, and the total number of standard areas per image was used as the cell count. The percent reduction in the number of cells compared to DMSO control was calculated for each concentration and time.
Structure (SMILES),μg FC/μg Protein (GC) @ 10 μM dose Fraction of Control (CT60 cells),further results
CCOc1cccc2cc(-c3csc(Nc4cccc(C(F)(F)F)c4)n3)c(=O)oc12 [Compound 1-a-14],,"μg FC/μg Protein by GC Fraction of control (CT60 cells; 10 μM, FC = free cholesterol): 1.44 ± 0.16 Fraction of control; reduction in cell number (CT43 cells; 10 μM): 80%"
CCN(CC)c1ccc(C=C2SC(=S)N(c3ccc(OC)cc3)C2=O)cc1 [Compound 2-a-3],0.81 ± 0.03 Fraction of Control,
COc1ccccc1Nc1nc(Nc2ccccc2OC)nc(Nc2ccccc2OC)n1 [Compound 2-a-9],0.75 ± 0.04 Fraction of Control,
FC(F)(F)COc1nc(NN=Cc2cccc(I)c2)nc(N(c2ccccc2)c2ccccc2)n1 [Compound 2-a-12],,reduction in the number of cells (CT43 cells; 20 μM): 75%
O=[N+]([O-])c1cccc(C=NNc2nc(Nc3cccc4ccccc34)nc(N(c3ccccc3)c3ccccc3)n2)c1 [Compound 2-a-13],0.79 ± 0.04 Fraction of Control,
C=CCN1C(=O)C(=Cc2cc(C)n(-c3ccccc3)c2C)C(C(=O)OC)=C1C [Compound 2-a-15],0.89 ± 0.03 Fraction of Control,
